Values after ≈ are worked out from the molar mass of the structure shown.
Target: T1, Phosphatidylinositol 4-kinase, PI4K (Homo sapiens, UniProt Q9BTU6+Q8TCG2+Q9UBF8+P42356)
Assay: Inhibition of Phosphatidylinositol 4-kinase of human epidermoid carcinoma A431 cells
Type: cell-based
Settings: a-431

Row | Structure (SMILES) | IC50 [µg/mL]
1 | NCCCNC(=O)c1c[nH]c2nc(N)nc(O)c12 [ECHIGUANINE B] | 0.18 (≈ 0.719 µM)
2 | COC(=O)CCNC(=O)c1c[nH]c2nc(N)nc(O)c12 | 0.3 (≈ 1.07 µM)
3 | N=C(N)NCCCNC(=O)c1cn(C2O[C@H](CO)C(O)[C@H]2O)c2nc(N)nc(O)c12 (single isomer, unassigned) | 7.5 (≈ 17.7 µM)
4 | N=C(S)CCNC(=O)c1cn(C2O[C@H](CO)C(O)[C@H]2O)c2nc(N)nc(O)c12 (single isomer, unassigned) | > 100
5 | NC(=O)NCCCNC(=O)c1cn(C2O[C@H](CO)C(O)[C@H]2O)c2nc(N)nc(O)c12 (single isomer, unassigned) | 1 (≈ 2.35 µM)
6 | NC(=O)CCNC(=O)c1cn(C2O[C@H](CO)C(O)[C@H]2O)c2nc(N)nc(O)c12 (single isomer, unassigned) | 2.4 (≈ 6.06 µM)
7 | N#CCCNC(=O)c1c[nH]c2nc(N)nc(O)c12 | 0.45 (≈ 1.83 µM)
8 | NCCCNC(=O)c1cn(C2O[C@H](CO)C(O)[C@H]2O)c2nc(N)nc(O)c12 (single isomer, unassigned) | > 100
9 | NC(=O)CCNC(=O)c1c[nH]c2nc(N)nc(O)c12 | 0.02 (≈ 0.0757 µM)
10 | N=C(N)CCNC(=O)c1cn(C2O[C@H](CO)C(O)[C@H]2O)c2nc(N)nc(O)c12 (single isomer, unassigned) | 100 (≈ 253 µM)
11 | COC(=O)CCNC(=O)c1cn(C2O[C@H](CO)C(O)[C@H]2O)c2nc(N)nc(O)c12 (single isomer, unassigned) | 25 (≈ 60.8 µM)
12 | N#CCCNC(=O)c1cn(C2O[C@H](CO)C(O)[C@H]2O)c2nc(N)nc(O)c12 (single isomer, unassigned) | > 100
13 | N=C(N)NCCCNC(=O)c1c[nH]c2nc(N)nc(O)c12 | 0.15 (≈ 0.513 µM)

Target: T1, Phosphatidylinositol 4-kinase, PI4K
Assay: Inhibition of Phosphatidylinositol 4-kinase of human epidermoid carcinoma A431 cells (Not prepared)
Type: cell-based
Settings: a-431

Row | Structure (SMILES) | IC50
14 | N=C(S)CCNC(=O)c1c[nH]c2nc(N)nc(O)c12 | Not prepared
15 | NC(=O)NCCCNC(=O)c1c[nH]c2nc(N)nc(O)c12 | Not prepared

Reference: ChEMBL document CHEMBL1150537, “Synthesis of echiguanine analogs and their ribofuranosyl glycosides that inhibit phosphatidylinositol 4-kinase” (Bioorg Med Chem Lett, 1997)
